Experiments:
human FABP5 (huFABP5) = human FABP5 (huFABP5) (Homo sapiens (Human), UniProt Q01469); assay: Tb TR-FRET assay, binding of Bodipy labeled fatty acid to His6 tagged huFABP5; details: 50 nM FABP protein, […] Bodipy labeled fatty acid; read-out: IC50 h-fabp5-ecoli-r
human FABP4 (huFABP4) = human FABP4 (huFABP4) (Homo sapiens (Human), UniProt P15090); assay: Tb TR-FRET assay, binding of Bodipy labeled fatty acid to His6 tagged huFABP4; details: 50 nM FABP protein, […] Bodipy labeled fatty acid; read-out: IC50 h-fabp4-ecoli-r
Chain of human FABP4 (huFABP4) (P15090 whole entry): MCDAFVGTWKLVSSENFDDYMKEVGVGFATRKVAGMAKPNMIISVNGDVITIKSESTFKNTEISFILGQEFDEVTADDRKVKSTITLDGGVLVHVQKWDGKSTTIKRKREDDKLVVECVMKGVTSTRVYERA

Chain of human FABP5 (huFABP5) (Q01469 whole entry): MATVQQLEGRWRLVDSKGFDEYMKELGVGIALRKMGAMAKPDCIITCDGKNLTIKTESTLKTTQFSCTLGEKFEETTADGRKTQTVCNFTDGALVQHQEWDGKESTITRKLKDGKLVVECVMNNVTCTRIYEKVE

Structure (SMILES)	IC50 (human FABP5 (huFABP5)) [µM]	IC50 (human FABP4 (huFABP4)) [µM]
CCc1ccc(-c2ccccc2)c(NC(=O)N2CCC[C@@H]2C(=O)O)c1 [Example 62, (R)-1-(4-ethylbiphenyl-2-ylcarbamoyl)pyrrolidine-2-carboxylic acid]	> 50	1.86
CC1(C(=O)O)CCCN1C(=O)Nc1ccccc1-c1ccccc1 (stereo not shown) [Example 15, 1-(biphenyl-2-ylcarbamoyl)-2-methylpyrrolidine-2-carboxylic acid]	> 50	0.86
NC(=O)c1cccc(-c2ccc(Cl)cc2NC(=O)N2CCC[C@@H]2C(=O)O)c1 [Example 56, (R)-1-(3′-carbamoyl-4-chlorobiphenyl-2-ylcarbamoyl)pyrrolidine-2-carboxylic acid]	> 50	11.1
O=C(O)[C@H]1CCN1C(=O)Nc1cc(Cl)ccc1-c1ccccc1F [Example 37, (R)-1-(4-chloro-2′-fluorobiphenyl-2-ylcarbamoyl)azetidine-2-carboxylic acid]	> 50	0.03
O=C(O)[C@H]1CCCN1C(=O)Nc1c(F)cccc1-c1ccccc1 [Example 11, (R)-1-(3-fluorobiphenyl-2-ylcarbamoyl)pyrrolidine-2-carboxylic acid]	> 50	0.86
O=C(O)[C@H]1CCCN1C(=O)Nc1ccsc1-c1ccccc1 [Example 24, (R)-1-(2-phenylthiophen-3-ylcarbamoyl)pyrrolidine-2-carboxylic acid]	> 50	1.67
O=C(O)[C@H]1CCCN1C(=O)Nc1cc(Cl)ccc1-c1ccccc1 [Example 10, (R)-1-(4-chlorobiphenyl-2-ylcarbamoyl)pyrrolidine-2-carboxylic acid]	> 1.44	0.12
O=C(O)[C@H]1CCCN1C(=O)Nc1ccccc1Oc1ccccc1 [Example 3, (R)-1-(2-phenoxyphenylcarbamoyl)pyrrolidine-2-carboxylic acid]	> 50	11.7
COc1cc(Cl)cc(NC(=O)N2CC[C@@H]2C(=O)O)c1-c1ccc(F)cc1 [Example 64, (R)-1-(4-chloro-4′-fluoro-6-methoxybiphenyl-2-ylcarbamoyl)azetidine-2-carboxylic acid]	6.66	0.02
O=C(O)[C@H]1CCCN1C(=O)Nc1cc(Cl)ccc1Oc1ccccc1 [Example 5, (R)-1-(5-chloro-2-phenoxyphenylcarbamoyl)pyrrolidine-2-carboxylic acid]	> 50	7.41
O=C(O)[C@H]1CCN1C(=O)Nc1cc(Cl)ccc1-c1ccccc1 [Example 12, (R)-1-(4-chlorobiphenyl-2-ylcarbamoyl)azetidine-2-carboxylic acid]	> 50	0.02
O=C(O)[C@H]1CCCN1C(=O)Nc1c(-c2ccccc2)sc2ccccc12 [Example 21, (R)-1-(2-phenylbenzo[b]thiophen-3-ylcarbamoyl)pyrrolidine-2-carboxylic acid]	> 50	0.67
O=C(O)[C@H]1CCCN1C(=O)Nc1ccc(Cl)cc1-c1ccccc1 [Example 2, (R)-1-(5-chlorobiphenyl-2-ylcarbamoyl)pyrrolidine-2-carboxylic acid]	21	2.04
N#Cc1cc(Cl)cc(NC(=O)N2CCC[C@@H]2C(=O)O)c1-c1ccccc1 [Example 25, (R)-1-(4-chloro-6-cyanobiphenyl-2-ylcarbamoyl)pyrrolidine-2-carboxylic acid]	15	0.19
Cc1ccccc1-c1ccc(Cl)cc1NC(=O)N1CCC[C@@H]1C(=O)O [Example 61, (R)-1-(4-chloro-2′-methylbiphenyl-2-ylcarbamoyl)pyrrolidine-2-carboxylic acid]	> 50	2.75
O=C(O)[C@H]1CCCN1C(=O)Nc1c(-c2ccccc2)sc2ncccc12 [Example 22, (R)-1-(2-phenylthieno[2,3-b]pyridin-3-ylcarbamoyl)pyrrolidine-2-carboxylic acid]	> 50	1.66
O=C(O)[C@H]1CCCN1C(=O)Nc1cc(Cl)cc(C2=CCCCC2)c1-c1ccccc1 [Example 26, (R)-1-[4-chloro-6-(cyclohexen-1-yl)-biphenyl-2-ylcarbamoyl]pyrrolidine-2-carboxylic acid]	0.07	0.53
COc1ccc(-c2ccc(Cl)cc2NC(=O)N2CCC[C@@H]2C(=O)O)cc1 [Example 60, (R)-1-(4-chloro-4′-methoxybiphenyl-2-ylcarbamoyl)pyrrolidine-2-carboxylic acid]	> 50	3.45
O=C(O)[C@H]1CCCN1C(=O)Nc1cc(F)cc(F)c1-c1ccccc1 [Example 14, (R)-1-(4,6-difluorobiphenyl-2-ylcarbamoyl)pyrrolidine-2-carboxylic acid]	> 6.86	0.31
O=C(O)[C@H]1CCN1C(=O)Nc1cc(Cl)c(F)cc1-c1ccccc1 [Example 30, (R)-1-(4-chloro-5-fluorobiphenyl-2-ylcarbamoyl)azetidine-2-carboxylic acid]	40.1	0.02
O=C(O)[C@H]1CCCN1C(=O)Nc1cc(Cl)ccc1C1=CCCCC1 [Example 57, (R)-1-[5-chloro-2-(cyclohexen-1-yl)phenylcarbamoyl]pyrrolidine-2-carboxylic acid]	> 50	1.1
O=C(O)[C@H]1CCCN1C(=O)Nc1cc(C(F)(F)F)ccc1-c1ccccc1 [Example 13, (R)-1-(4-(trifluoromethyl)biphenyl-2-ylcarbamoyl)pyrrolidine-2-carboxylic acid]	> 50	3.95
O=C(O)[C@H]1CCN1C(=O)Nc1cc(Cl)ccc1-c1ccc(F)cc1F [Example 63, (R)-1-(4-chloro-2′,4′-difluorobiphenyl-2-ylcarbamoyl)azetidine-2-carboxylic acid]	> 50	0.03
O=C(O)[C@H]1CCN1C(=O)Nc1cc(Cl)ccc1-c1cccc(F)c1F [Example 36, (R)-1-(4-chloro-2′,3′-difluorobiphenyl-2-ylcarbamoyl)azetidine-2-carboxylic acid]	> 50	0.06
O=C(O)[C@H]1CCCN1C(=O)Nc1cc(Cl)ccc1-c1ccc(F)cc1 [Example 54, (R)-1-(4-chloro-4′-fluorobiphenyl-2-ylcarbamoyl)pyrrolidine-2-carboxylic acid]	> 29.6	0.06
O=C(O)[C@H]1CCCN1C(=O)Nc1cc(Cl)ccc1-c1ccncc1 [Example 58, (R)-1-(5-chloro-2-(pyridin-4-yl)phenylcarbamoyl)pyrrolidine-2-carboxylic acid]	> 50	2
O=C(Nc1ccccc1-c1ccccc1)N1CCCC1(C(=O)O)c1ccccc1 (stereo not shown) [Example 6, 1-(Biphenyl-2-ylcarbamoyl)-2-phenyl-pyrrolidine-2-carboxylic acid]	> 50	0.62
O=C(O)[C@H]1CCCN1C(=O)Nc1cc(Cl)ccc1-c1ccc(Cl)cc1 [Example 59, (R)-1-(4,4′-dichlorobiphenyl-2-ylcarbamoyl)pyrrolidine-2-carboxylic acid]	> 50	2.08
O=C(O)[C@H]1CCCN1C(=O)Nc1cc(Cl)cc(-c2ccccc2)c1-c1ccccc1 [Example 19, (R)-1-(5′-Chloro-[1,1′;2′,1″]terphenyl-3′-ylcarbamoyl)-pyrrolidine-2-carboxylic acid]	1.22	0.5

Source: patent publication US9708340B2, “Urea derivatives and their use as fatty-acid binding protein (FABP) inhibitors” (Hoffmann-La Roche Inc., priority 2013, dated 2017)
